Experimental data from ChEMBL document CHEMBL4732079, “Design, synthesis and antitumor evaluation of new 1,8-naphthalimide derivatives targeting nuclear DNA” (Eur J Med Chem, 2021).
Active and inactive are the calls of the source. The calls are words filed in the database; no cut-off is given here.

Experiments:
MGC-803 [1] = test: Induction of cell cycle arrest in human MGC-803 cells assessed as accumulation of cells at S phase at 0.25 uM for 24 hrs (Rvb =20.23%); type: functional
MGC-803 [2] = test: Induction of cell cycle arrest in human MGC-803 cells assessed as accumulation of cells at G2 phase at 0.25 uM for 24 hrs (reference value: 17.61%); type: functional
MGC-803 [3] = test: Induction of cell cycle arrest in human MGC-803 cells assessed as accumulation of cells at G1 phase at 0.25 uM for 24 hrs (reference value: 62.6%); type: functional
T-24 = test: Antiproliferative activity against human T-24 cells by MTT assay; type: functional, cell-based
SK-OV-3 = test: Antiproliferative activity against human SK-OV-3 cells by MTT assay; type: functional, cell-based
MGC-803 [4] = test: Antiproliferative activity against human MGC-803 cells by MTT assay; type: functional, cell-based
MGC-803 [5] = test: Antitumor activity against human MGC-803 cells xenografted in BALB/c nude mice assessed as tumor inhibitory rate at 15 mg/kg, ip measured after 21 days relative to control; type: functional; details: Mus musculus, MGC-803, ip, 504 h, time 21 day
[6] = Toxicity in BALB/c nude mouse xenografted with human MGC-803 cells assessed effect on body weight at 5 to 15 mg/kg, ip measured after 21 days; type: organism-based; details: in vivo, 504 h, dose 5-15 mg/kg, time 21 day
DNA [7] = test: Induction of DNA damage in human MGC-803 cells assessed as increase in p-ATM levels at 0.5 to 1 uM by Western blot analysis; type: cell-based; details: dose 0.5-1 µM
DNA [8] = test: Induction of DNA damage in human MGC-803 cells assessed as increase in p-CHK2 levels at 0.5 to 1 uM by Western blot analysis; type: cell-based; details: dose 0.5-1 µM
DNA [9] = test: Induction of DNA damage in human MGC-803 cells assessed as increase in Cdc25A levels at 0.5 to 1 uM by Western blot analysis; type: cell-based; details: dose 0.5-1 µM
DNA [10] = test: Induction of DNA damage in human MGC-803 cells assessed as increase in p-H2AX levels at 0.5 to 1 uM by Western blot analysis; type: cell-based; details: dose 0.5-1 µM
[11] = biological target: T1, DNA topoisomerase 1 (Homo sapiens) (UniProt P11387); test: Inhibition of topoisomerase 1 (unknown origin) assessed as DNA relaxation using pBR322 DNA as substrate at < 20 uM by gel electrophoresis; details: dose microM <20
T1 sequence (whole entry): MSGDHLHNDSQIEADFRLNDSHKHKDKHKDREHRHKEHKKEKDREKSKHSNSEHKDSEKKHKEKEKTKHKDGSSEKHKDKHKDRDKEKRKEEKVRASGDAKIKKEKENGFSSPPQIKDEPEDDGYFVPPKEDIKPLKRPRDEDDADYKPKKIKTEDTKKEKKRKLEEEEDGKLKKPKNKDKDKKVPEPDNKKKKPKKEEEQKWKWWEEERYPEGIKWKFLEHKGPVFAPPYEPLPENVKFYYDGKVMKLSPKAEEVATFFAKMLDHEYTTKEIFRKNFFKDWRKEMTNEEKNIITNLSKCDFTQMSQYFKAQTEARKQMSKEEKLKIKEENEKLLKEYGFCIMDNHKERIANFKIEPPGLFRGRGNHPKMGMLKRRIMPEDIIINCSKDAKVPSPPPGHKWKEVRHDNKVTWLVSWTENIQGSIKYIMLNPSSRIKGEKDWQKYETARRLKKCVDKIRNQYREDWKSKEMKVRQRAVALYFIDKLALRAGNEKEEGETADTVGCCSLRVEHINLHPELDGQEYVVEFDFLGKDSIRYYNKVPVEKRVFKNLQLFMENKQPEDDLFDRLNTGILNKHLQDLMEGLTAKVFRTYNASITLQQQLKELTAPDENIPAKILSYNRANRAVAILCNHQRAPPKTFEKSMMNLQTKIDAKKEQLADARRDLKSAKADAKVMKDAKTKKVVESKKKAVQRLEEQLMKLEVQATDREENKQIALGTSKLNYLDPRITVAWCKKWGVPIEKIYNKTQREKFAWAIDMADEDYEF

MGC-803 [12] = test: Induction of cell cycle arrest in human MGC-803 cells assessed as accumulation of cells at G2 phase at 0.5 uM for 24 hrs (reference value: 17.61%); type: functional
MGC-803 [13] = test: Induction of cell cycle arrest in human MGC-803 cells assessed as accumulation of cells at S phase at 0.5 uM for 24 hrs (Rvb =20.23%); type: functional
MGC-803 [14] = test: Induction of cell cycle arrest in human MGC-803 cells assessed as accumulation of cells at G2 phase at 1 uM for 24 hrs (reference value: 17.61%); type: functional
MGC-803 [15] = test: Induction of cell cycle arrest in human MGC-803 cells assessed as accumulation of cells at S phase at 1 uM for 24 hrs (Rvb =20.23%); type: functional
MGC-803 [16] = test: Downregulation of cyclinE expression in human MGC-803 cells at 0.5 to 1 uM by Western blot analysis; type: functional, cell-based; details: dose 0.5-1 µM
MGC-803 [17] = test: Induction of apoptosis in human MGC-803 cells assessed as viable cells at 0.5 uM after 24 hrs (reference value: 93.6%); type: functional; details: read-out: Activity
MGC-803 [18] = test: Induction of apoptosis in human MGC-803 cells assessed as early apoptotic cells at 0.5 uM after 24 hrs (reference value: 2.9%); type: functional
MGC-803 [19] = test: Induction of apoptosis in human MGC-803 cells assessed as late apoptotic cells at 0.5 uM after 24 hrs (reference value: 2.6%); type: functional
MGC-803 [20] = test: Induction of apoptosis in human MGC-803 cells assessed as necrotic cells at 0.5 uM after 24 hrs (reference value: 0.9%); type: functional
MGC-803 [21] = test: Induction of apoptosis in human MGC-803 cells assessed as viable cells at 1 uM after 24 hrs (reference value: 93.6%); type: functional; details: read-out: Activity
MGC-803 [22] = test: Induction of apoptosis in human MGC-803 cells assessed as early apoptotic cells at 1 uM after 24 hrs (reference value: 2.9%); type: functional
MGC-803 [23] = test: Induction of apoptosis in human MGC-803 cells assessed as late apoptotic cells at 1 uM after 24 hrs (reference value: 2.6%); type: functional
MGC-803 [24] = test: Induction of apoptosis in human MGC-803 cells assessed as viable cells at 2 uM after 24 hrs (reference value: 93.6%); type: functional; details: read-out: Activity
MGC-803 [25] = test: Induction of apoptosis in human MGC-803 cells assessed as early apoptotic cells at 2 uM after 24 hrs (reference value: 2.9%); type: functional
MGC-803 [26] = test: Induction of apoptosis in human MGC-803 cells assessed as necrotic cells at 2 uM after 24 hrs (reference value: 0.9%); type: functional
MGC-803 [27] = test: Induction of apoptosis in human MGC-803 cells assessed as increase in caspase-9 expression at 0.5 to 1 uM by Western blot analysis; type: functional, cell-based; details: dose 0.5-1 µM
MGC-803 [28] = test: Induction of apoptosis in human MGC-803 cells assessed as increase in PARP expression at 0.5 to 1 uM by Western blot analysis; type: functional, cell-based; details: dose 0.5-1 µM
MGC-803 [29] = test: Induction of apoptosis in human MGC-803 cells assessed as decrease in Bcl2 expression at 0.5 to 1 uM by Western blot analysis; type: functional, cell-based; details: dose 0.5-1 µM

Compound | Activity (MGC-803 [1]) [%] | Activity (MGC-803 [2]) [%] | Activity (MGC-803 [3]) [%] | IC50 (T-24) [nM] | IC50 (SK-OV-3) [nM] | IC50 (MGC-803 [4]) [nM] | inhibition in vivo at 15 mg/kg (MGC-803 [5]) [%] | Activity [6] | Activity (DNA [7]) | Activity (DNA [8]) | Activity (DNA [9]) | Activity (DNA [10]) | inhibition [11] | Activity (MGC-803 [12]) [%] | Activity (MGC-803 [13]) [%] | Activity (MGC-803 [14]) [%] | Activity (MGC-803 [15]) [%] | inhibition (MGC-803 [16]) | viability at 0.5 µM (MGC-803 [17]) [%] | Activity (MGC-803 [18]) [%] | other results
Cc1ccc(S(=O)(=O)N2CCN(c3c([N+](=O)[O-])cc4c5c(cccc35)C(=O)N(CCN(C)C)C4=O)CC2)cc1 | 40.4 | 5.83 | 53.73 | 330 | 320 | 1420 | 61.7 | Non-Toxic | Active | Active | Active | Active | Active | 0.19 | 43.96 | 0 | 75.18 | Active | 78.5 | 9.7 | Activity (MGC-803 [19]): 7.6%; Activity (MGC-803 [20]): 4.2%; viability at 1 µM (MGC-803 [21]): 72.9%; Activity (MGC-803 [22]): 13.1%; Activity (MGC-803 [23]): 9.8%; viability at 2 µM (MGC-803 [24]): 66.9%; Activity (MGC-803 [25]): 16.8%; Activity (MGC-803 [26]): 6.2%; Activity (MGC-803 [27]): Active; Activity (MGC-803 [28]): Active; Activity (MGC-803 [29]): Active
CN(C)CCN1C(=O)c2cccc3c(N4CCN(C(=O)c5ccccc5)CC4)c([N+](=O)[O-])cc(c23)C1=O | 37.8 | 11.29 | 50.91 | 420 | 1880 | 870 | 52.8 | Non-Toxic | Active | Active | Active | Active | Active | 3.14 | 69.18 | 0.92 | 71.16 | Active | 74.9 | 10.1 | Activity (MGC-803 [19]): 11.6%; Activity (MGC-803 [20]): 3.4%; viability at 1 µM (MGC-803 [21]): 66.5%; Activity (MGC-803 [22]): 17.5%; Activity (MGC-803 [23]): 11.2%; viability at 2 µM (MGC-803 [24]): 41.9%; Activity (MGC-803 [25]): 32%; Activity (MGC-803 [26]): 5.6%; Activity (MGC-803 [27]): Active; Activity (MGC-803 [28]): Active; Activity (MGC-803 [29]): Active
